# Patent US20110173718A1, “HERBICIDE TOLERANT PLANTS” (SYNGENTA CROP PROTECTION, INC., priority 2008, published 2011)
# “And” between values parts separate entries of the source, which are not always exact repeats. Equal entries are not always repeated.
# Tests used:
# [1] = system: tobacco plants expressing Pseudomonas fluorescens HPPD; experiment: Glasshouse spray test, Pseudomonas HPPD transgenic tobacco; format: in vivo; conditions: C2 line (Pseudomonas HPPD, T2), individual plants
# From the text: Tobacco plants expressing the wild-type HPPD gene of Pseudomonas fluorescens strain 87-79 under operable control of the double enhanced 35S CMV promoter region, Nos3′ terminator and TMV translational enhancer were provided as detailed in Example 4 of WO0246387.
# Seed of wild-type tobacco plants, C2 tobacco plants and of the T1 progeny of a further Arabidopsis-HST expressing tobacco line, D2 were planted out in 3 inch pots, grown on, sprayed with compounds 1.1, 2.30 and 3.6 at the rates shown in table 5. Percent damage scores were assessed at 7 DAT. Aside from the presumptive non-transgenic segregants the D2 line containing the Arabidopis HST expression construct offered the highest level of tolerance to the two HST herbicides with the Psuedomonas HPPD, C2 line, offering only marginal tolerance under the conditions of this test.
# Transgenic lines of tobacco, soyabean and corn etc. can be engineered to express various heterologous HPPDs derived from, for example Avena (SEQ ID #26), Wheat (SEQ ID #27), Pseudomonas fluorescens (SEQ ID # 25) and Shewanella colwelliana (SEQ ID #28) as, for example, described in WO 02/46387.
# Single copy events amongst the T1 plant lines are identified by their 3:1 segregation ratio (wrt kanamycin and or herbicide) and by quantitative RT-PCR. Seed from the thus selected T1 tobacco (var Samsun) lines are sown in 3 inch diameter pots containing 50% peat, 50% John Innes soil no 3. After growth to the 3 leaf stage, plants are sprayed, as described above, in order to test for herbicide tolerance relative to like-treated non-transgenic tobacco plants.
# Control tobacco plants and transgenic T1 plants expressing either the Pseudomonas or the wheat HPPD gene are sprayed at 37, 111, 333 and 1000 g/ha rates of HST inhibitors and, for example, compound 2.3.
# Plants are assessed and scored for % damage at 16 DAT.
# weeds = experiment: Glasshouse weed control by HST/HPPD (mesotrione) mixtures, post-emergence; format: in vivo; conditions: post-emergence; for % damage, 1 g ai ha^−1 mesotrione / % damage, no-mesotrione: 14 DAT; for colby: difference to Colby expectation
# Experimental: Weed seeds are planted out in trays containing suitable soil (for example 50% peat, 50% John Innes soil no 3) and grown in the glass house conditions under 24-27° C. day; 18-21° C. night and approximately a 14 h (or longer in UK summer) photoperiod. Humidity is ˜65% and light levels up to 2000 μmol/m^2 at bench level. Trays are sprayed with test chemicals dissolved in water with 0.2-0.25% X-77 surfactant and sprayed from a boom on a suitable track sprayer moving at about 2 mph in a suitable track sprayer (for example a DeVries spray chamber with the nozzle about 2 inches from the plant tops). Spray volume is suitably 500-1000 l/ha. Sprays are carried out both pre-emergence and over small plants at about 7-12 d post-emergence
# Plants are assessed 14 DAT and herbicidal damage is scored on a scale from 0 to 100%. The HST inhibitor compound 2.30 (designated compound A in table 16 and 17), haloxydine (compound 1.1) and compound 2.13 (designated compound AE in tables 16 and 17) are sprayed at rates between 0 and 500 g/ha.
# [2] = ALOMY, 16 g/ha + 1 g ai/ha mesotrione
# [3] = ALOMY, 31 g/ha + 1 g ai/ha mesotrione
# [4] = ALOMY, 63 g/ha + 1 g ai/ha mesotrione
# [5] = ALOMY, 125 g/ha + 1 g ai/ha mesotrione
# [6] = ALOMY, 250 g/ha + 1 g ai/ha mesotrione
# [7] = ALOMY, 500 g/ha + 1 g ai/ha mesotrione
# [8] = ECHCG, 16 g/ha + 1 g ai/ha mesotrione
# [9] = ECHCG, 31 g/ha + 1 g ai/ha mesotrione
# [10] = ECHCG, 63 g/ha + 1 g ai/ha mesotrione
# [11] = ECHCG, 125 g/ha + 1 g ai/ha mesotrione
# [12] = ECHCG, 250 g/ha + 1 g ai/ha mesotrione
# [13] = ECHCG, 500 g/ha + 1 g ai/ha mesotrione
# [14] = SETFA, 16 g/ha + 1 g ai/ha mesotrione
# [15] = SETFA, 31 g/ha + 1 g ai/ha mesotrione
# [16] = SETFA, 63 g/ha + 1 g ai/ha mesotrione
# [17] = SETFA, 125 g/ha + 1 g ai/ha mesotrione
# [18] = SETFA, 250 g/ha + 1 g ai/ha mesotrione
# [19] = SETFA, 500 g/ha + 1 g ai/ha mesotrione
smiles,measurement,setting,value
CC(C)C(=O)Oc1c(-c2c(F)ccc(Br)c2Cl)c(=O)n(CC(F)F)c2nccnc12 [Compound 2.30],% damage at 7 DAT,[1]; 150 gai/ha,90% and 70% and 80% (2×)
same,% damage at 7 DAT,[1]; 300 gai/ha,85%
same,% damage at 7 DAT,[1]; 450 gai/ha,65% and 70% and 85% (2×)
same,"% damage, 1 g ai ha^−1 mesotrione",weeds; [2],2%
same,colby,weeds; [2],0
same,"% damage, no-mesotrione","weeds; ALOMY, 16 g/ha",2%
same,"% damage, 1 g ai ha^−1 mesotrione",weeds; [3],3%
same,colby,weeds; [3],0
same,"% damage, no-mesotrione","weeds; ALOMY, 31 g/ha",3%
same,"% damage, 1 g ai ha^−1 mesotrione",weeds; [4],10%
same,colby,weeds; [4],5
same,"% damage, no-mesotrione","weeds; ALOMY, 63 g/ha",5%
same,"% damage, 1 g ai ha^−1 mesotrione",weeds; [5],20%
same,colby,weeds; [5],7
same,"% damage, no-mesotrione","weeds; ALOMY, 125 g/ha",13%
same,"% damage, 1 g ai ha^−1 mesotrione",weeds; [6],22%
same,colby,weeds; [6],7
same,"% damage, no-mesotrione","weeds; ALOMY, 250 g/ha",15%
same,"% damage, 1 g ai ha^−1 mesotrione",weeds; [7],35%
same,colby,weeds; [7],12
same,"% damage, no-mesotrione","weeds; ALOMY, 500 g/ha",23%
same,"% damage, 1 g ai ha^−1 mesotrione",weeds; [8],17%
same,colby,weeds; [8],−2
same,"% damage, no-mesotrione","weeds; ECHCG, 16 g/ha",12%
same,"% damage, 1 g ai ha^−1 mesotrione",weeds; [9],38%
same,colby,weeds; [9],13
same,"% damage, no-mesotrione","weeds; ECHCG, 31 g/ha",18%
same,"% damage, 1 g ai ha^−1 mesotrione",weeds; [10],42%
same,colby,weeds; [10],−5
same,"% damage, no-mesotrione","weeds; ECHCG, 63 g/ha",42%
same,"% damage, 1 g ai ha^−1 mesotrione",weeds; [11],53%
same,colby,weeds; [11],−7
same,"% damage, no-mesotrione","weeds; ECHCG, 125 g/ha",57%
same,"% damage, 1 g ai ha^−1 mesotrione",weeds; [12],68%
same,colby,weeds; [12],0
same,"% damage, no-mesotrione","weeds; ECHCG, 250 g/ha",65%
same,"% damage, 1 g ai ha^−1 mesotrione",weeds; [13],75%
same,colby,weeds; [13],6
same,"% damage, no-mesotrione","weeds; ECHCG, 500 g/ha",67%
same,"% damage, 1 g ai ha^−1 mesotrione",weeds; [14],18%
same,colby,weeds; [14],−5
same,"% damage, no-mesotrione","weeds; SETFA, 16 g/ha",23%
same,"% damage, 1 g ai ha^−1 mesotrione",weeds; [15],42%
same,colby,weeds; [15],10
same,"% damage, no-mesotrione","weeds; SETFA, 31 g/ha",32%
same,"% damage, 1 g ai ha^−1 mesotrione",weeds; [16],42%
same,colby,weeds; [16],8
same,"% damage, no-mesotrione","weeds; SETFA, 63 g/ha",33%
same,"% damage, 1 g ai ha^−1 mesotrione",weeds; [17],62%
same,colby,weeds; [17],5
same,"% damage, no-mesotrione","weeds; SETFA, 125 g/ha",57%
same,"% damage, 1 g ai ha^−1 mesotrione",weeds; [18],75%
same,colby,weeds; [18],10
same,"% damage, no-mesotrione","weeds; SETFA, 250 g/ha",65%
same,"% damage, 1 g ai ha^−1 mesotrione",weeds; [19],75%
same,colby,weeds; [19],5
same,"% damage, no-mesotrione","weeds; SETFA, 500 g/ha",70%
